Data reported in patent US12414960B2, “Analogues of oleuropein and oleacein and uses thereof” (Attica Sciences Ltd., priority 2020, dated 2025).

Assays:
[1] = target: topoisomerase Type I; assay: Plasmid relaxation assay; assay type: biochemical; conditions: NS = not statistically significant
Description: Topoisomerases are nuclear enzymes that play essential roles in DNA replication, transcription, chromosome segregation, and recombination. Type I topoisomerases (classified into three distinct subfamilies—Type IA, IB, and IC based on structural considerations) are enzymes which make single-stranded cuts in DNA. DNA topoisomerases are important targets of approved and experimental anti-cancer agents. The protocol described here are of assays used to assess the ability of GS compounds to inhibit topoisomerase Type I activity based on relaxation of supercoiled DNA.
Plasmid DNA is a circular double-stranded DNA molecule that is mainly found in bacteria and has the ability to self-replicate on its own. Bacteria may have one or more copies of plasmid DNA that help them survive adverse conditions, as they usually carry antibiotic resistance genes. Even with the help of plasmids being transferred from bacterium to bacterium, it is possible to transfer information that contributes to their survival.
When plasmid DNA runs in an electrophoresis gel it appears mainly in three configurations: (1) The supercoiled conformation, in which the plasmid is intact (without fractures), is its most compact form; (2) The open circular, relaxed conformation, to which it goes when single-stranded fractures are caused. This is caused either from enzymatic or other factors (e.g., free radicals) that have the ability to cause DNA breakage; (3) The linear configuration to which it goes when it has double-stranded fractures. These configurations run at different speeds in an electrophoresis gel. The smaller the configuration, the faster it penetrates the agarose pores. […]
The ability of GS compounds to inhibit topoisomerase Type I activity was assessed based on the relaxation of supercoiled DNA as previously described (Kouka, Paraskevi et al., Oxid Med Cell Longev. 2019, Article ID 1870965). […] Finally, the gels were exposed to UV, the MultiImage Light Cabinet (Alpha Innotech, San Leandro, CA, USA) was used to capture the gel photos, and the results were analyzed with the Alpha View suite. […]

[2] = tested on: MIA PaCa-2 pancreatic cancer cells; assay: Cell Glo luminescence cell growth assay, MIA PaCa-2; assay type: cell-based, human; conditions: NS = not statistically significant; for inhibition at 50 µM: Homo sapiens, MIA PaCa-2, 24 h, read-out: Effectiveness to suppress MIA PaCa-2 cell growth (cell growth inhibition); for Effectiveness to suppress MIA PaCa-2 cell growth (cell growth inhibition): 50 uM, 24 h
Description: The CellTiter-Glo® Luminescent Cell Viability Assay (Promega Corporation; Madison, WI) is a homogeneous method of determining the number of viable cells in culture based on quantitation of the ATP present, an indicator of metabolically active cells. The homogeneous assay procedure involves adding the single reagent (CellTiter-Glo® Reagent) directly to cells cultured in serum-supplemented medium. The homogeneous “add-mix-measure” format results in cell lysis and generation of a luminescent signal proportional to the amount of ATP present. The amount of ATP is directly proportional to the number of cells present in culture.
Cancer cells (3,000 cells/well) were harvested in a 96-well plate. Then, the cancer cells were treated with GS compounds and incubated for 24 hours. The MT Cell Viability Substrate, NanoLuc® Enzyme and cell culture medium was equilibrated to 37° C. The 2× RealTime-Glo™ reagent was prepared by diluting the MT Cell Viability Substrate and NanoLuc® Enzyme in 37° C. cell culture medium to a 2× concentration for each reagent. For example, 1 mL of 2× RealTime-Glo™ reagent was prepared by adding 2 μL of MT Cell Viability Substrate, 1,000×, and 2 μL of NanoLuc® Enzyme, 1,000×, to 996 μL of cell culture medium to form the 2× RealTime-Glo™ reagent. Then, an equal volume of 2× RealTime-Glo™ reagent was added to the cancer cells. The cells were kept for ˜20 minutes in the cell culture incubator and then luminescence was measured by using a plate-reading luminometer.
MIA PaCa-2 is a human pancreatic ductal adenocarcinoma cell line derived from the carcinoma of a person.
The effects of exemplary compounds on cancer cell lines and one non-tumorigenic cell line (control) were investigated using a high throughput screening assay. More specifically, the effects of the GS compounds on cell growth was evaluated by the XTT assay for cell lines HepG2, HeLa, MCF7 ER+, MDA-MB-231, and MKN-45, and by the Cell Glo luminescence assay for cell lines MIA PaCa-2, HCT-116, MCF-10A, and PANC-1.

Plasmid Relaxation Assay IC50 [1] [μg extract/mL] | SMILES | inhibition at 50 µM [2] [%] | Effectiveness to suppress MIA PaCa-2 cell growth (cell growth inhibition) [2]
5.94 | C/C=C1/[C@H](OC2OC(CO)C(O)C(O)C2O)OC=C(C(=O)O)[C@H]1CC(=O)OCCc1ccc(O)c(O)c1 (stereo in doubt) [GS6, (2S,4S,E)-4-(2-(3,4-dihydroxyphenethoxy)-2-oxoethyl)-3-ethylidene-2{[(2R,3S,4R,5R,6S)-3,4,5-trihydroxy-6-(hydroxymethyl)tetrahydro-2H-pyran-2-yl]oxy}-3,4dihydro-2H-pyran-5-carboxylic acid] | – | –
9.91 | C/C=C1/[C@H](O[C@@H]2O[C@H](CO)[C@@H](O)[C@H](O)[C@H]2O)OC=C(C(=O)OC)[C@H]1CC(=O)OCCc1ccc(O)c(O)c1 [GS1, oleuropein] | – | –
9.5 | C/C=C(/C=O)[C@@H](CC=O)CC(=O)OCCc1ccc(O)c(O)c1 [GS17, (3S,4E)-4-formyl-3-(2-oxoethyl)-4-hexenoic acid 2-(3,4-dihydroxyphenyl)ethyl ester, reference compound] | – | –
– | C/C=C(/C=O)[C@@H](CC=O)CC(=O)OCCc1ccc(O)cc1 [GS19, (3S,4E)-4-formyl-3-(2-oxoethyl)-4-hexenoic acid 2-(4-hydroxyphenyl)ethyl ester, reference compound] | 30 | –
– | C/C=C(/C=O)[C@@H](CC=O)CC(=O)OCCOc1ccccc1 [GS24, (3S,4E)-4-formyl-3-(2-oxoethyl)-4-hexenoic acid 2-phenoxyethyl ester] | 28 | –
– | C/C=C(/C=O)[C@@H](CC=O)CC(=O)OCCCCCCCCCCCCCCCC [GS26, (3S,4E)-4-formyl-3-(2-oxoethyl)-4-hexenoic acid hexadecyl ester] | 70 | best efficacy
– | C/C=C(/C=O)[C@@H](CC=O)CC(=O)SCCc1ccccc1 [GS27, S-phenethyl (3S,4E)-4-formyl-3-(2-oxoethyl)hex-4-enethioate] | 91 | best efficacy
– | C/C=C(/C=O)[C@@H](CC=O)CC(=O)OCCCSC [GS28, (3S,4E)-4-formyl-3-(2-oxoethyl)-4-hexenoic acid 3-(methylthio)propyl ester] | 79 | best efficacy
